What was measured:
Alternaria solani = assay: Activity against the early blight pathogen Alternaria solani in the microtiterplate test; type: cell-based; conditions: 31 ppm active substance; MTP measured at 405 nm 7 days after inoculation, 18° C.
Sclerotinia sclerotiorum = assay: Preventative fungicidal control of white mold on oilseed rape caused by Sclerotinia sclerotiorum; type: in vivo; conditions: 100 g/ha, assessed after 14 days, untreated plants 100% infected
Experimental: The compound was dissolved in a mixture of acetone and/or dimethylsulfoxide and the wetting agent/emulsifier Wettol, which is based on ethoxylated alkylphenoles, in a ratio (volume) solvent-emulsifier of 99 to 1 to give a total volume of 5 ml. Subsequently, water was added to total volume of 100 ml. This stock solution was then diluted with the described solvent-emulsifier-water mixture to the final concentration given in the table below. Oilseed rapes were grown in pots to the 13 to 14 leaf stage. These plants were sprayed to run-off with previously described spray solution, containing the concentration of active ingredient or their mixture mentioned in the table below. The plants could air-dry. The next day the applicated rape petals were fixed with 25 μl of 2.5% methylcellulose on leaf 1 and 2. 25 μl of a spore suspension of Sclerotinia sclerotiorum was pipetted on each fixed rape petal. After 14 days at 20° C. and a relative humidity of 60% the extent of fungal attack on the leaves was visually assessed as % diseased leaf area.

Fusarium culmorum = assay: Activity against Fusarium culmorum in the microtiterplate test; type: cell-based; conditions: 31 ppm active substance; MTP measured at 405 nm 7 days after inoculation, 18° C.
Experimental: The active compounds were formulated separately as a stock solution having a concentration of 10000 ppm in dimethyl sulfoxide.
The stock solutions were mixed according to the ratio, pipetted onto a micro titer plate (MTP) and diluted with water to the stated concentrations. A spore suspension of Fusarium culmorum in an aqueous biomalt or yeast-bactopeptone-glycerine or DOB solution was then added. The plates were placed in a water vapor-saturated chamber at a temperature of 18° C. Using an absorption photometer, the MTPs were measured at 405 nm 7 days after the inoculation.

Structure (SMILES)	growth of the pathogen (Alternaria solani) [%]	growth of the pathogen (% diseased leaf area) (Sclerotinia sclerotiorum)	growth of the pathogen (Fusarium culmorum) [%]
Cc1cc(C2NC(C)C(C)(C)Oc3c(F)cccc32)cnc1C(F)F (mixture of isomers) [Ex-7]	23	at most 1%	–
Cc1cc(C2NC(C)C(C)(C)Oc3c(F)cccc32)cnc1C (mixture of isomers) [Ex-6]	23	–	–
Cc1cc(C2c3ccccc3OCC3(CC3)N2C)cnc1C(F)F (centres unmarked) [Ex-1, 5-(6-(difluoromethyl)-5-methylpyridin-3-yl)-4-methyl-4,5-dihydro-2H-spiro[benzo[f][1,4]oxazepine-3,1′-cyclopropane]]	23	–	1
